Legend:
[1] = target: T1, Avi-KRAS G12R (1-169) GppNHp/RAF1 RBD-3xFLAG (52-151) (Homo sapiens, UniProt P01116, G12R); experiment: Raf1-KRAS G12R-GppNHP disruption HTRF assay (Biological Example 1); format: binding
T1 construct: Avi-KRAS G12R (1-169)
How it was run: (§1)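 HTRF PPI disruption; buffer 50 mM Tris pH 7.5, 100 mM NaCl, 5 mM MgCl2, 0.1% BSA, 0.01% Tween, 10% DMSO. Protein mix 1 h RT shaking, reagent mix 1 h RT shaking. Data as % activity vs DMSO (100%).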

GP2d cells (KRAS G12D) = experiment: Cell-based pERK HTRF assay in GP2d cell (Biological Example 2); conditions: GP2d (KRAS G12D) cells, pERK HTRF
How it was run: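 Phospho-ERK in lysed cells was detected by HTRF using Eu cryptate and d2 antibodies, read between 4 and 24 h at room temperature. Prior to lysis, KRAS G12D GP2d cells, seeded the day before in DMEM with 10% FBS, were exposed to compounds for 60 min. Compounds were tested as 9-point half-log curves from 1 μM or 100 nM top, with 0.25% DMSO.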

SW620 cells (KRAS G12V) = experiment: Cell-based pERK HTRF assay in SW620 cell (Biological Example 4); conditions: pERK HTRF
How it was run: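 Read-out: HTRF pERK signal (excitation 320 nm, emission 615 nm) from lysates of SW620 cells after 4 h compound exposure. Dose range was 9 points, half-log steps from 1 μM, in 0.25% DMSO; antibody incubation ran 4–24 h at room temperature.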

[2] = target: T2, Avi-KRAS WT (1-169) GppNHp/RAF1 RBD-3xFLAG (52-151) (Homo sapiens, UniProt P01116); experiment: Raf1-KRAS WT-GppNHP disruption HTRF assay (Biological Example 1); format: binding
T2 construct: Avi-KRAS WT (1-169)
How it was run: as §1

[3] = target: T3, Avi-KRAS G12V (1-169) GppNHp/RAF1 RBD-3xFLAG (52-151) (Homo sapiens, UniProt P01116, G12V); experiment: Raf1-KRAS G12V-GppNHP disruption HTRF assay (Biological Example 1); format: binding
T3 construct: Avi-KRAS G12V (1-169)
How it was run: as §1

[4] = target: T4, Avi-KRAS G12D (1-169) GppNHp/RAF1 RBD-3xFLAG (52-151) (Homo sapiens, UniProt P01116, G12D); experiment: Raf1-KRAS G12D-GppNHP disruption HTRF assay (Biological Example 1); format: binding
T4 construct: Avi-KRAS G12D (1-169)
How it was run: as §1

[5] = Homo sapiens, SW-620, SW620 (KRAS G12V) cells
[6] = KRAS G12R, GppNHp-loaded, class symbols
[7] = Homo sapiens, SW-620, SW620 (KRAS G12V) cells, class symbols
[8] = KRAS WT, GppNHp-loaded, class symbols
[9] = KRAS G12V, GppNHp-loaded, class symbols
[10] = KRAS G12D, GppNHp-loaded, class symbols
[11] = KRAS G12R, GppNHp-loaded, Table 11
[12] = KRAS WT, GppNHp-loaded, Table 11
[13] = KRAS G12V, GppNHp-loaded, Table 11
[14] = KRAS G12D, GppNHp-loaded, Table 11

T2 sequence (P01116 1-169 isoform P01116-2): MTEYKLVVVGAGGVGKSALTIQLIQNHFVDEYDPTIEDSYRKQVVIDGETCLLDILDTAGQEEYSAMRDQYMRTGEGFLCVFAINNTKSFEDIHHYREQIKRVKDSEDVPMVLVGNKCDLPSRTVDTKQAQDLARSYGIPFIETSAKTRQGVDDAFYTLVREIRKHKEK
T4 sequence (P01116 1-169 isoform P01116-2 G12D): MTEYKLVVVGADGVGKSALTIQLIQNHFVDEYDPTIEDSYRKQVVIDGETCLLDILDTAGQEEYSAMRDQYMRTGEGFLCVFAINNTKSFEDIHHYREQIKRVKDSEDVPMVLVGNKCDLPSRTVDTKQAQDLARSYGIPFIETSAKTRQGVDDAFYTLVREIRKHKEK
T1 sequence (P01116 1-169 isoform P01116-2 G12R): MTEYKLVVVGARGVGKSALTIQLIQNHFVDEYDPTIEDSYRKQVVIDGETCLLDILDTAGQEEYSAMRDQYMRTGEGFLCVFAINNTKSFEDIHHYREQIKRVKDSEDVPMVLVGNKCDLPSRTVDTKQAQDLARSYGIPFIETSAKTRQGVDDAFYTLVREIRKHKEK
T3 sequence (P01116 1-169 isoform P01116-2 G12V): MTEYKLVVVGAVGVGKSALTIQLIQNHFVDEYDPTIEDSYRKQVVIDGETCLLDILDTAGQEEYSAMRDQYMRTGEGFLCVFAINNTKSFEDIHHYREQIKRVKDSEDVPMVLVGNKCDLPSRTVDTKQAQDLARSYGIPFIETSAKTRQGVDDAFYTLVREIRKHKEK

Structure (SMILES) | IC50 ([1]; KRAS G12R-GppNHp/RAF1 RBD HTRF) | IC50 (GP2d cells (KRAS G12D); GP2d) | IC50 (SW620 cells (KRAS G12V); [5]) | IC50 ([2]; KRAS WT-GppNHp/RAF1 RBD HTRF) | IC50 ([3]; KRAS G12V-GppNHp/RAF1 RBD HTRF) | IC50 ([4]; KRAS G12D-GppNHp/RAF1 RBD HTRF) | IC50 [1, 6] | IC50 (GP2d cells (KRAS G12D); GP2d, class symbols) | IC50 (SW620 cells (KRAS G12V); [7]) | IC50 [2, 8] | IC50 [3, 9] | IC50 [4, 10] | further results
CCN(c1nc(OC[C@@]23CCCN2C[C@H](F)C3)nc2c(F)c(-c3ccc(F)c4sc(N)c(C#N)c34)c(C(F)(F)F)cc12)[C@H]1CCN(C(=O)C(C)(C)C)C1 (atropisomer, axis not shown) [Compound 562] | < 100 nM | < 100 nM | < 100 nM | < 100 nM | 100 to 1000 nM | < 100 nM |  |  |  |  |  |  | 
CCN(c1nc(OC[C@@]23CCCN2C[C@H](F)C3)nc2c(F)c(-c3ccc(F)c4sc(N)c(C#N)c34)c(C(F)(F)F)cc12)[C@H]1C[C@@H](C)N(C(=O)c2ccon2)C1 (atropisomer, axis not shown) [Compound 783] |  |  |  |  |  |  | 100 to 1000 nM | < 100 nM | < 100 nM | 100 to 1000 nM | 100 to 1000 nM | 100 to 1000 nM | 
CC(=O)N1CC[C@@H](N(C)c2nc(OC[C@@]34CCCN3C[C@H](F)C4)nc3c(F)c(-c4ccc(F)c5sc(N)c(C#N)c45)c(C(F)(F)F)cc23)[C@H]1C (single isomer, unassigned) [Compound 192] |  |  |  |  |  |  |  |  |  |  |  |  | IC50 [1, 11]: > 10000 nM; IC50 (GP2d cells (KRAS G12D)): > 1000 nM; IC50 (SW620 cells (KRAS G12V); SW620 (KRAS G12V) cells): > 1000 nM; IC50 [2, 12]: > 10000 nM; IC50 [3, 13]: > 10000 nM; IC50 [4, 14]: > 10000 nM
CCN(c1nc(OC[C@@]23CCCN2C[C@H](F)C3)nc2c(F)c(-c3ccc(F)c4sc(N)c(C#N)c34)c(C(F)(F)F)cc12)[C@H]1CCN(C(=O)c2cnco2)C1 (atropisomer, axis not shown) [Compound 708] |  |  |  |  |  |  | < 100 nM | < 100 nM | < 100 nM | < 100 nM | < 100 nM | < 100 nM | 
CCC(=O)N1CC[C@@H](N(CC)c2nc(OC[C@@]34CCCN3C[C@H](F)C4)nc3c(F)c(-c4ccc(F)c5sc(N)c(C#N)c45)c(C(F)(F)F)cc23)[C@H]1C [Compound 405] | 100 to 1000 nM | < 100 nM | < 100 nM | 100 to 1000 nM | 100 to 1000 nM | 100 to 1000 nM |  |  |  |  |  |  | 
CCN(c1nc(OC[C@@]23CCCN2C[C@H](F)C3)nc2c(F)c(-c3ccc(F)c4sc(N)c(C#N)c34)c(C(F)(F)F)cc12)[C@H]1CCN(C(=O)C2CCOCC2)C1 (atropisomer, axis not shown) [Compound 578] |  |  |  |  |  |  | < 100 nM | < 100 nM | < 100 nM | < 100 nM | < 100 nM | < 100 nM | 
C[C@@H]1Cn2nncc2CN1c1nc(OC[C@@]23CCCN2C[C@H](F)C3)nc2c(F)c(-c3ccc(F)c4sc(N)c(C#N)c34)c(C(F)(F)F)cc12 (atropisomer, axis not shown) [Compound 530] | 100 to 1000 nM | < 100 nM | < 100 nM | 100 to 1000 nM | 100 to 1000 nM | 100 to 1000 nM |  |  |  |  |  |  | 
CN(CC(F)(F)F)c1nc(OC[C@@]23CCCN2C[C@H](F)C3)nc2c(F)c(-c3ccc(F)c4sc(N)c(C#N)c34)c(C(F)(F)F)cc12 [Compound 165] |  | < 100 nM | < 100 nM |  |  |  |  |  |  |  |  |  | IC50 [1, 11]: 100 to 1000 nM; IC50 [2, 12]: 100 to 1000 nM; IC50 [3, 13]: 100 to 1000 nM; IC50 [4, 14]: 100 to 1000 nM
N#Cc1c(N)sc2c(F)ccc(-c3c(C(F)(F)F)cc4c(N5C[C@H]6C[C@@H]5CO6)nc(OC[C@]56C[C@@H](F)CN5CC5(CC5)C6)nc4c3F)c12 [Compound 595] |  |  |  |  |  |  | 1000 to 10000 nM | < 100 nM | < 100 nM | 1000 to 10000 nM | 1000 to 10000 nM | 1000 to 10000 nM | 
CN1CC[C@H](N(C)c2nc(OC[C@@]34CCCN3C[C@H](F)C4)nc3c(F)c(-c4ccc(F)c5sc(N)c(C#N)c45)c(C(F)(F)F)cc23)CC1=O [Compound 281] | 100 to 1000 nM | < 100 nM | < 100 nM | 100 to 1000 nM | 1000 to 10000 nM | 100 to 1000 nM |  |  |  |  |  |  | 
CN(C)C(=O)c1nc2c(s1)CN(c1nc(OCC34CCCN3CC(F)C4)nc3c(F)c(-c4ccc(F)c5sc(N)c(C#N)c45)c(C(F)(F)F)cc13)CC2 (stereo not drawn) [Compound 404] | > 10000 nM | < 100 nM | < 100 nM | < 100 nM | 1000 to 10000 nM | 1000 to 10000 nM |  |  |  |  |  |  | 
CN(C)C(=O)c1nn2c(c1C(F)(F)F)CN(c1nc(OC[C@@]34CCCN3C[C@H](F)C4)nc3c(F)c(-c4ccc(F)c5sc(N)c(C#N)c45)c(C(F)(F)F)cc13)CC2 (atropisomer, axis not shown) [Compound 596] |  |  |  |  |  |  | 100 to 1000 nM | < 100 nM | < 100 nM | 100 to 1000 nM | 100 to 1000 nM | < 100 nM | 
CCN(c1nc(OC[C@@]23CCCN2C[C@H](F)C3)nc2c(F)c(-c3ccc(F)c4sc(N)c(C#N)c34)c(C(F)(F)F)cc12)[C@H]1CCN(C(=O)N2CCCC2)C1 [Compound 542] | < 100 nM | < 100 nM | < 100 nM | < 100 nM | < 100 nM | < 100 nM |  |  |  |  |  |  | 
CCC(=O)N1CC[C@@H](N(C)c2nc(OC[C@]34CCCN3C[C@H](F)C4)nc3c(F)c(-c4ccc(F)c5sc(N)c(C#N)c45)c(C(F)(F)F)cc23)[C@H]1C (atropisomer, axis not shown) [Compound 336] | > 10000 nM | 100 to 1000 nM | 100 to 1000 nM | 1000 to 10000 nM | > 10000 nM | 1000 to 10000 nM |  |  |  |  |  |  | 
CCN(c1nc(OC[C@@]23CCCN2C[C@H](F)C3)nc2c(F)c(-c3ccc(F)c4sc(N)c(C#N)c34)c(C(F)(F)F)cc12)[C@H]1CCN(C(=O)N(C)C)[C@H]1C (atropisomer, axis not shown) [Compound 798] |  |  |  |  |  |  | 1000 to 10000 nM | 100 to 1000 nM | 100 to 1000 nM | 1000 to 10000 nM | 1000 to 10000 nM | 100 to 1000 nM | 
CCN(c1nc(OC[C@@]23CCCN2C[C@H](F)C3)nc2c(F)c(-c3ccc(F)c4sc(N)c(C#N)c34)c(C(F)(F)F)cc12)[C@@H]1CCN(C(=O)OC)C1 [Compound 396] | 100 to 1000 nM | < 100 nM | < 100 nM | 100 to 1000 nM | 100 to 1000 nM | 100 to 1000 nM |  |  |  |  |  |  | 
C[C@H]1Cn2nnc(C#N)c2CN1c1nc(OC[C@@]23CCCN2C[C@H](F)C3)nc2c(F)c(-c3ccc(F)c4sc(N)c(C#N)c34)c(C(F)(F)F)cc12 (atropisomer, axis not shown) [Compound 625] |  |  |  |  |  |  | 1000 to 10000 nM | < 100 nM | < 100 nM | 1000 to 10000 nM | 1000 to 10000 nM | 100 to 1000 nM | 
CCN(c1nc(OC[C@@]23CCCN2C[C@H](F)C3)nc2c(F)c(-c3ccc(F)c4sc(N)c(C#N)c34)c(C(F)(F)F)cc12)[C@@H]1C[C@H](C)N(C(=O)C2CC2)C1 (atropisomer, axis not shown) [Compound 588] |  |  |  |  |  |  | 100 to 1000 nM | < 100 nM | < 100 nM | 100 to 1000 nM | 100 to 1000 nM | 100 to 1000 nM | 
CCN(c1nc(OC[C@@]23CCCN2C[C@H](F)C3)nc2c(F)c(-c3ccc(F)c4sc(N)c(C#N)c34)c(C(F)(F)F)cc12)[C@H]1CCN(C(=O)C2COC2)C1 (atropisomer, axis not shown) [Compound 580] |  |  |  |  |  |  | < 100 nM | < 100 nM | < 100 nM | < 100 nM | < 100 nM | < 100 nM | 
COC(=O)N1CC[C@H]2[C@@H]1CN2c1nc(OC[C@@]23CCCN2C[C@H](F)C3)nc2c(F)c(-c3ccc(F)c4sc(N)c(C#N)c34)c(C(F)(F)F)cc12 (atropisomer, axis not shown) [Compound 716] |  |  |  |  |  |  | > 10000 nM | < 100 nM | 100 to 1000 nM | 1000 to 10000 nM | > 10000 nM | 1000 to 10000 nM | 
